# Measured values: US10370333B2 (Sanford Burnham Prebys Medical Discovery Institute, priority 2012, dated 2019)
# Target: TNAP (Homo sapiens (Human), UniProt P05186)
# Assay: TNAP (PPi) inhibition assay, pyrophosphate as substrate
# Assay type: biochemical
# Procedure, shortened: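 Enzyme source was conditioned serum-free medium from COS-1 cells transiently expressing tagged human TNAP, dialyzed against TBS with MgCl2/ZnCl2. Activity on natural substrate PPi at pH 7.4 read as liberated phosphate (Biomol Green).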
row,IC50 [nM],Structure (SMILES)
1,> 1000,"COc1ccc(OC)c(S(=O)(=O)Nc2cccnn2)c1 [Example V-25, 2,5-Dimethoxy-N-pyridazin-3-yl-benzenesulfonamide]"
2,< 100,"COc1ccc(Cl)cc1S(=O)(=O)Nc1cncc(-c2cnccn2)c1 [Example III-96, 5-Chloro-2-methoxy-N-(5-(pyrazin-2-yl)pyridin-3-yl)benzenesulfonamide]"
3,100 to 1000,"COCCNC(=O)c1cncc(NS(=O)(=O)c2cc(OC)ccc2OC)c1 [Example IV-41, 5-(2,5-Dimethoxyphenylsulfonamido)-N-(2-methoxyethyl)nicotinamide]"
4,< 100,"COc1ccc(OC)c(S(=O)(=O)Nc2cncc(-c3cnccn3)c2)c1 [Example III-94, 2,5-Dimethoxy-N-(5-(pyrazin-2-yl)pyridin-3-yl)benzenesulfonamide]"
5,> 1000,"COc1ccc(-c2ccsc2)cc1S(=O)(=O)Nc1cnc2ccccc2c1 [Example II-8, 2-Methoxy-N-quinolin-3-yl-5-thiophen-3-yl-benzenesulfonamide]"
6,> 1000,"COc1ccc(Br)cc1S(=O)(=O)Nc1ccsc1 [Example V-1, 5-Bromo-2-methoxy-N-(thiophen-3-yl)benzenesulfonamide]"
7,100 to 1000,"COc1ccc(Cl)cc1S(=O)(=O)Nc1cncc(C(=O)NCCN(C)C)c1 [Example IV-33, 5-(5-Chloro-2-methoxyphenylsulfonamido)-N-(2-(dimethylamino)ethyl)nicotinamide]"
8,< 100,"O=C(OC1CCCCC1)c1cncc(NS(=O)(=O)c2cc(Br)ccc2OC(F)(F)F)c1 [Example XII-11, Cyclohexyl 5-(5-bromo-2-(trifluoromethoxy)phenylsulfonamido)nicotinate]"
9,> 1000,"COc1ccc(OC)c(S(=O)(=O)Nc2ccc(N3CCOCC3)nc2)c1 [Example VIII-2, 2,5-Dimethoxy-N-(6-morpholinopyridin-3-yl)benzenesulfonamide]"
10,< 100,"COc1ccc(Br)cc1S(=O)(=O)Nc1cncc(-c2ccc(F)cc2)c1 [Example III-17, 5-Bromo-N-[5-(4-fluoro-phenyl)-pyridin-3-yl]-2-methoxy-benzenesulfonamide]"
11,< 100,"CCOC(=O)c1cncc(NS(=O)(=O)c2cc(OC)ccc2OC)c1 [Example IV-12, Ethyl 5-(2,5-dimethoxyphenylsulfonamido)nicotinate]"
12,< 100,"COc1ccc(Cl)cc1S(=O)(=O)Nc1cncc(-c2ccccn2)c1 [Example III-60, N-([2,3′-Bipyridin]-5′-yl)-5-chloro-2-methoxybenzenesulfonamide]"
13,100 to 1000,"COc1ccc(OC)c(S(=O)(=O)Nc2cncc(C(=O)Nc3ccccc3)c2)c1 [Example IV-40, 5-(2,5-Dimethoxyphenylsulfonamido)-N-phenylnicotinamide]"
14,100 to 1000,"COCCNC(=O)c1ccc(OC)c(S(=O)(=O)Nc2cnc3ccccc3c2)c1 [Example II-20, 4-Methoxy-N-(2-methoxy-ethyl)-3-(quinolin-3-ylsulfamoyl)-benzamide]"
15,> 1000,COc1ccc(Br)cc1S(=O)(=O)Nc1cscn1
16,> 1000,"COc1ccc(Br)cc1S(=O)(=O)Nc1ccc(N)nc1 [Example VIII-3, 5-Bromo-2-methoxy-N-(6-Amino-pyridin-3-yl)-benzenesulfonamide]"
17,< 100,"COc1ccc(Br)cc1S(=O)(=O)Nc1cncc(-c2cnccn2)c1 [Example III-95, 5-Bromo-2-methoxy-N-(5-(pyrazin-2-yl)pyridin-3-yl)benzenesulfonamide]"
18,< 100,"CCCOC(=O)c1cncc(NS(=O)(=O)c2cc(OC(F)(F)F)ccc2OC)c1 [Example XII-16, Propyl 5-(2-methoxy-5-(trifluoromethoxy)phenylsulfonamido)nicotinate]"
19,> 1000,"CNc1ccc(NS(=O)(=O)c2cc(OC)ccc2OC)cn1 [Example VIII-6, 2,5-Dimethoxy-N-(6-methylamino-pyridin-3-yl)-benzenesulfonamide]"
20,> 1000,"COc1ccc(OC)c(S(=O)(=O)Nc2nnc(C)s2)c1 [Example V-18, 2,5-Dimethoxy-N-(5-methyl-[1,3,4]thiadiazol-2-yl)-benzenesulfonamide]"
21,< 100,"COc1ccc(Cl)cc1S(=O)(=O)Nc1cncc(C(=O)NC2CCCCC2)c1 [Example IV-30, 5-(5-Chloro-2-methoxyphenylsulfonamido)-N-cyclohexylnicotinamide]"
22,> 1000,"COc1ccc(C(=O)NC2CCCCC2)cc1S(=O)(=O)Nc1cnc2ccccc2c1 [Example II-19, N-Cyclohexyl-4-methoxy-3-(quinolin-3-ylsulfamoyl)-benzamide]"
23,100 to 1000,"COCCNC(=O)c1cncc(NS(=O)(=O)c2cc(Cl)ccc2OC)c1 [Example IV-32, 5-(5-Chloro-2-methyoxyphenylsulfonamido)-N-(2-methoxyethyl)nicotinamide]"
24,> 1000,"COc1ccc(C(=O)Nc2ccccc2)cc1S(=O)(=O)Nc1cnc2ccccc2c1 [Example II-18, 4-Methoxy-N-phenyl-3-(quinolin-3-ylsulfamoyl)-benzamide]"
25,> 1000,"CCN(c1cnc2ccccc2c1)S(=O)(=O)c1cc(OC)ccc1OC [Example VII-13, 2,5-Dimethoxy-N-ethyl-N-(quinolin-3-yl)benzenesulfonamide]"
26,> 1000,"COc1ccc(Br)cc1S(=O)(=O)Nc1cc(C(F)(F)F)n(C)n1 [Example V-13, 5-Bromo-2-methoxy-N-(1-methyl-5-trifluoromethyl-1H-pyrazol-3-yl)-benzenesulfonamide]"

row,Structure (SMILES),IC50 [nM]
1,"CNC(=O)c1ccc2ncc(NS(=O)(=O)c3cc(OC)ccc3OC)cc2c1 [Example IX-11, 3-(2,5-Dimethoxy-benzenesulfonylamino)-quinoline-6-carboxylic Acid Methylamide]",100 to 1000
2,"COc1ccc(Br)cc1S(=O)(=O)Nc1cncc(-c2ccc(O)cc2)c1 [Example III-8, 5-Bromo-N-[5-(4-hydroxy-phenyl)-pyridin-3-yl]-2-methoxy-benzenesulfonamide]",< 100
3,"CNC(=O)c1cncc(NS(=O)(=O)c2cc(OC(F)(F)F)ccc2OC)c1 [Example XII-20, 5-(2-Methoxy-5-(trifluoromethoxy)phenylsulfonamido)-N-methylnicotinamide]",100 to 1000
4,"COc1ccc(OC(F)(F)F)cc1S(=O)(=O)Nc1cncc(-c2cncs2)c1 [Example XI-27, 2-Methoxy-N-(5-(thiazol-5-yl)pyridin-3-yl)-5-(trifluoromethoxy)benzenesulfonamide]",100 to 1000
5,"O=S(=O)(Nc1cncc(-c2ncccn2)c1)c1cc(Br)ccc1OC(F)(F)F [Example XI-24, 5-Bromo-N-(5-(pyrimidin-2-yl)pyridin-3-yl)-2-(trifluoromethoxy)benzenesulfonamide]",100 to 1000
6,"COc1ccc(OC)c(S(=O)(=O)Nc2cncc(-c3cnn(C)c3)c2)c1 [Example III-88, 2,5-Dimethoxy-N-(5-(1-methyl-1H-pyrazol-4-yl)pyridin-3-yl)benzenesulfonamide]",< 100
7,"COC(=O)c1cncc(NS(=O)(=O)c2cc(OC)ccc2OC)c1 [Example IV-11, Methyl 5-(2,5-dimethoxyphenylsulfonamido)nicotinate]",< 100
8,"COc1ccc(OC)c(S(=O)(=O)Nc2cc[nH]n2)c1 [Example V-8, 2,5-Dimethoxy-N-(1H-pyrazol-3-yl)-benzenesulfonamide]",> 1000
